Assay results reported in ChEMBL document CHEMBL5050856, “Atf6 modulators and uses thereof” (2021).

Legend:
Type in all cases: cell-based
U2OS [1] = assay: Modulation of ATF6 activity in human U2OS cells at 10 uM in presence of ER stress inducer thapsigargin (Tg) measured by TRE-luciferase reporter assay relative to control
U2OS [2] = assay: Modulation of ATF6 activity in human U2OS cells at 1 uM in presence of ER stress inducer thapsigargin (Tg) measured by TRE-luciferase reporter assay relative to control
U2OS [3] = assay: Modulation of ATF6 activity in human U2OS cells at 1 uM measured by TRE-luciferase reporter assay relative to control
U2OS [4] = assay: Modulation of ATF6 activity in human U2OS cells at 10 uM measured by TRE-luciferase reporter assay relative to control

## FC(F)(F)c1ccc(Cn2cc(C#Cc3nnc(-c4ccccn4)s3)cn2)c(C(F)(F)F)c1
U2OS [1]
  Activity: 75%
U2OS [2]
  Activity: 50%

## O=C(Nc1cnn(Cc2ccc(C(F)(F)F)cc2C(F)(F)F)c1)c1cc(-c2ccco2)on1
U2OS [1]
  Activity: < 50%
U2OS [2]
  Activity: < 50%

## O=C(Nc1cnn(C2CCCC2)c1)c1cc(-c2ccco2)on1
U2OS [1]; filed as activator
  Activity: > 150%
U2OS [2]; filed as activator
  Activity: > 150%
U2OS [3]
  Activity: 0%
U2OS [4]
  Activity: 0%

## O=C(Nc1cnn(C2CCOC2)c1)c1cc(-c2cccs2)on1 (stereo in doubt; 3-19)
U2OS [1]; filed as activator
  Activity: > 150%
U2OS [2]; filed as activator
  Activity: > 150%
U2OS [3]
  Activity: 0%
U2OS [4]
  Activity: 25%

## O=C(Nc1cnn(Cc2ccc(C(F)(F)F)cc2)c1)c1cc(-c2ccco2)on1
U2OS [1]
  Activity: 75%
U2OS [2]; filed as activator
  Activity: 100%
U2OS [3]
  Activity: 0%

## O=C(Nc1cnn(C2CCOC2)c1)c1cc(-c2ccccn2)on1 (stereo in doubt; 3-21)
U2OS [1]; filed as activator
  Activity: > 150%
U2OS [2]; filed as activator
  Activity: > 150%
U2OS [3]
  Activity: 0%
U2OS [4]
  Activity: 25%

## CC(C1CCCC1)n1cc(NC(=O)c2cc(-c3ccco3)on2)cn1 (stereo in doubt; 3-5)
U2OS [1]; filed as activator
  Activity: > 150%
U2OS [2]; filed as activator
  Activity: 125%
U2OS [3]
  Activity: 0%
U2OS [4]
  Activity: 0%

## CC(c1ccc(C(F)(F)F)cc1C(F)(F)F)n1cc(/C=C\c2nnc(-c3ccccn3)s2)cn1 (stereo in doubt; 2-7)
U2OS [1]
  Activity: 75%
U2OS [2]; filed as activator
  Activity: 100%

## O=C(Nc1cnn(C2CNC2)c1)c1cc(-c2ccco2)on1
U2OS [2]; filed as activator
  Activity: 125%
U2OS [3]
  Activity: 0%

## CC(c1ccc(C(F)(F)F)cc1C(F)(F)F)n1cc(/C=C\c2nnc(-c3ccccn3)s2)cn1 (stereo in doubt; 2-6)
U2OS [1]
  Activity: 50%
U2OS [2]; filed as activator
  Activity: 100%

## O=C(Nc1cnn(C2CCOC2)c1)c1cc(-c2cccs2)on1 (stereo in doubt; 3-22)
U2OS [1]; filed as activator
  Activity: > 150%
U2OS [2]; filed as activator
  Activity: 125%
U2OS [3]
  Activity: 0%
U2OS [4]
  Activity: 25%

## CC(C1CCOC1)n1cc(NC(=O)c2cc(-c3ccco3)on2)cn1 (stereo in doubt; 3-24)
U2OS [1]; filed as activator
  Activity: > 150%
U2OS [2]; filed as activator
  Activity: 100%
U2OS [3]
  Activity: 0%
U2OS [4]
  Activity: 25%

## CC(c1ccc(C(F)(F)F)cc1C(F)(F)F)n1cc(C#Cc2nnc(-c3ccccn3)s2)cn1 (stereo in doubt; 2-2)
U2OS [1]
  Activity: < 50%
U2OS [2]
  Activity: < 50%

## O=C(Nc1cnn(Cc2c(Cl)cncc2Cl)c1)c1cc(-c2ccco2)on1
U2OS [1]; filed as activator
  Activity: 125%
U2OS [2]; filed as activator
  Activity: 100%
U2OS [3]
  Activity: 0%
U2OS [4]
  Activity: 0%

## CC(c1ccc(C(F)(F)F)cc1C(F)(F)F)n1cc(C#Cc2nnc(-c3ccccn3)s2)cn1 (stereo in doubt; 2-1)
U2OS [1]
  Activity: < 50%
U2OS [2]
  Activity: 50%

## CC(c1ccc(C(F)(F)F)cc1C(F)(F)F)n1cc(C#Cc2nnc(-c3cnccn3)s2)cn1 (stereo in doubt; 2-21)
U2OS [1]
  Activity: 75%
U2OS [2]
  Activity: 75%

## O=C(Nc1cnn(C2CCNC2)c1)c1cc(-c2ccco2)on1 (configuration not stated)
U2OS [1]; filed as activator
  Activity: > 150%
U2OS [2]; filed as activator
  Activity: 125%
U2OS [3]
  Activity: 0%
U2OS [4]
  Activity: 0%

## CC(c1ccc(C(F)(F)F)cc1C(F)(F)F)n1cc(C#Cc2nnc(-c3cnccn3)s2)cn1 (stereo in doubt; 2-22)
U2OS [1]
  Activity: 75%
U2OS [2]
  Activity: 50%

## CC(C1CCCC1)n1cc(NC(=O)c2cc(-c3ccco3)on2)cn1 (stereo in doubt; 3-18)
U2OS [1]; filed as activator
  Activity: 125%
U2OS [2]; filed as activator
  Activity: 100%
U2OS [3]
  Activity: 0%
U2OS [4]
  Activity: 0%

## Cc1nn(C(C)c2ccc(C(F)(F)F)cc2C(F)(F)F)cc1C#Cc1nnc(-c2ccccn2)s1 (stereo in doubt; 2-23)
U2OS [1]
  Activity: 50%
U2OS [2]
  Activity: 75%

## CC(C1CCOC1)n1cc(NC(=O)c2cc(-c3ccco3)on2)cn1 (stereo in doubt; 3-27)
U2OS [1]; filed as activator
  Activity: > 150%
U2OS [2]; filed as activator
  Activity: 100%
U2OS [3]
  Activity: 0%
U2OS [4]
  Activity: 25%

## CC(C1CCOC1)n1cc(NC(=O)c2cc(-c3ccco3)on2)cn1 (stereo in doubt; 3-25)
U2OS [1]; filed as activator
  Activity: > 150%
U2OS [2]; filed as activator
  Activity: 100%
U2OS [3]
  Activity: 0%
U2OS [4]
  Activity: 0%

## CC(C1CCOC1)n1cc(NC(=O)c2cc(-c3ccco3)on2)cn1 (stereo in doubt; 3-26)
U2OS [1]; filed as activator
  Activity: > 150%
U2OS [2]; filed as activator
  Activity: > 150%
U2OS [3]
  Activity: 0%
U2OS [4]
  Activity: > 50%

## Cc1nn(C(C)c2ccc(C(F)(F)F)cc2C(F)(F)F)cc1C#Cc1nnc(-c2ccccn2)s1 (stereo in doubt; 2-11)
U2OS [1]
  Activity: 50%
U2OS [2]
  Activity: 50%

## CC(c1c(Cl)cccc1Cl)n1cc(C#Cc2nnc(-c3ccccn3)s2)cn1 (configuration not stated)
U2OS [1]; filed as activator
  Activity: 100%
U2OS [2]
  Activity: 75%
U2OS [3]
  Activity: 0%
U2OS [4]
  Activity: 0%

## O=C(Nc1cnn(C2CCOC2)c1)c1cc(-c2cccs2)on1 (stereo in doubt; 3-23)
U2OS [1]; filed as activator
  Activity: > 150%
U2OS [2]; filed as activator
  Activity: > 150%
U2OS [3]
  Activity: 25%
U2OS [4]
  Activity: > 50%

## O=C(Nc1cnn(CC2CCCC2)c1)c1cc(-c2ccco2)on1
U2OS [1]; filed as activator
  Activity: > 150%
U2OS [2]; filed as activator
  Activity: > 150%
U2OS [3]
  Activity: 0%
U2OS [4]
  Activity: 0%

## CC(C1CCCC1)n1cc(NC(=O)c2cc(-c3ccco3)on2)cn1 (stereo in doubt; 3-17)
U2OS [1]; filed as activator
  Activity: 125%
U2OS [2]; filed as activator
  Activity: 125%
U2OS [3]
  Activity: 0%
U2OS [4]
  Activity: 0%

## CC(c1ccc(C(F)(F)F)cc1C(F)(F)F)n1cc(C#Cc2nnc(-c3cnccn3)s2)cn1 (stereo in doubt; 2-10)
U2OS [1]
  Activity: 75%
U2OS [2]
  Activity: 50%

## CC(c1ccc(C(F)(F)F)cc1C(F)(F)F)n1cc(/C=C\c2nnc(-c3ccccn3)s2)cn1 (stereo in doubt; 2-8)
U2OS [1]
  Activity: 50%
U2OS [2]; filed as activator
  Activity: 100%

## CC(c1ccc(C(F)(F)F)cc1C(F)(F)F)n1cc(/C=C/c2nnc(-c3ccccn3)s2)cn1 (configuration not stated)
U2OS [1]
  Activity: < 50%
U2OS [2]; filed as activator
  Activity: 100%

## Cc1nn(C(C)c2ccc(C(F)(F)F)cc2C(F)(F)F)cc1C#Cc1nnc(-c2ccccn2)s1 (stereo in doubt; 2-24)
U2OS [1]
  Activity: < 50%
U2OS [2]
  Activity: < 50%

## O=C(Nc1cnn(C2CCOC2)c1)c1cc(-c2ccccn2)on1 (stereo in doubt; 3-20)
U2OS [1]; filed as activator
  Activity: > 150%
U2OS [2]; filed as activator
  Activity: 100%
U2OS [3]
  Activity: 0%
U2OS [4]
  Activity: 0%

## O=C(Nc1cnn(Cc2ccccc2)c1)c1cc(-c2ccco2)on1
U2OS [1]; filed as activator
  Activity: 125%
U2OS [2]; filed as activator
  Activity: 100%
U2OS [3]
  Activity: 0%
U2OS [4]
  Activity: 25%

## CC(c1ccc(C(F)(F)F)cc1C(F)(F)F)n1cc(CCc2nnc(-c3ccccn3)s2)cn1 (configuration not stated)
U2OS [1]
  Activity: < 50%
U2OS [2]
  Activity: 75%
